Source: patent US20210087217A1, “NUCLEOTIDE HEMI-SULFATE SALT FOR THE TREATMENT OF HEPATITIS C VIRUS” (Atea Pharmaceuticals, Inc., priority 2017, published 2021)
“Also recorded” adds a separate entry of the source. Where a name gives a salt, the structure may show the parent alone.

Legend:
[1] = Plasma profiles of Compound 2 metabolites in rats; details: rats, single oral dose of Compound 2
Experimental: The results for a single 500 mg/kg dose in rats is shown in FIG. 17 and the results for a single 30, 100, or 300 mg/kg dose in monkeys is shown in FIG. 18.

[2] = Ambient stability (25 ± 2° C./60 ± 5% RH) of Compound 2; assay type: physicochemical
Experimental: Three conditions were tested: accelerated stability (40 2° C./75±5% RH) over a 6-month time period, ambient stability (25±2° C./60±5% RH) over a 9-month period, and stability under refrigerator conditions (5 3° C.) over a 9-month time period. The results for accelerated stability, ambient stability, and refrigerator conditions are shown in Table 23, Table 24, and Table 25, respectively.
After 9 months, the percentage of water in the sample was only 0.20% and the total related substance 1 impurities was only 0.02%.

[3] = Head-to-head comparison of plasma levels in dogs dosed with Compound 1 and Compound 2; assay type: in vivo, dog; details: dosed Compound 1 25 mg/kg or Compound 2 30 mg/kg, normalized to a dose of 25 mg/kg
Experimental: A head-to-head comparison of dogs dosed with Compound 1 and Compound 2 was conducted.

[4] = Plasma levels of metabolites following single oral doses of Compound 2, monkeys; assay type: in vivo, monkey; details: for AUC(0-t) / Cmax / Tmax: monkey, plasma, po
[5] = Plasma levels of metabolites following single oral doses of Compound 2, dogs; assay type: in vivo, dog; details: for AUC(0-t) / Cmax / Tmax: dog, plasma, po
[6] = Heart and liver tissue levels of active triphosphate 4 hours after oral Compound 2, monkeys; assay type: in vivo, monkey; details: 4 hours after oral dose of Compound 2
Experimental: (§1) High levels of the active TP were measured in the liver of all species tested.

[7] = Heart and liver tissue levels of active triphosphate 4 hours after oral Compound 2, dogs; assay type: in vivo, dog; details: 4 hours after oral dose of Compound 2
Experimental: as §1

[8] = Storage of Compound 1 forms and amorphous salts at 25° C./60% RH for 14 days (HPLC, XRPD, observation)
Experimental: This initial characterization was followed by storage at 25° C./60% relative humidity (RH) for 14 days with analysis by […] and XRPD after 7 and 14 days. FIG. 4A is the XRPD after 14 days at 25° C./60% (RH).
The samples were then frozen with the solvent removed by lyophilization.
The samples were then subjected to storage at 25° C./60% relative humidity (RH) for 14 days with analysis by HPLC and XRPD after 7 (FIG. 4B) and 14 days (FIG. 5A).

[9] = 25° C./60% RH, over nine months
[10] = 25 ± 2° C./60 ± 5% RH, 1st month
[11] = 25 ± 2° C./60 ± 5% RH, 3rd month
[12] = 25 ± 2° C./60 ± 5% RH, 6th month
[13] = 25 ± 2° C./60 ± 5% RH, 9th month

With `CNc1nc(N)nc2c1ncn2[C@@H]1O[C@H](CO[P@@](=O)(N[C@@H](C)C(=O)OC(C)C)Oc2ccccc2)[C@@H](O)[C@@]1(C)F` [Compound 2, hemi-sulfate salt of isopropyl((S)-(((2R,3R,4R,5R)-5-(2-amino-6-(methylamino)-9H-purin-9-yl)-4-fluoro-3-hydroxy-4-methyltetrahydrofuran-2-yl)methoxy)(phenoxy)phosphoryl)-L-alaninate] the “Plasma levels of parent nucleotide prodrug” value [1] was “very low plasma levels”, the Percentage of water ([2]; 25° C./60% RH, after 9 months) was 0.20% and the “Total related substance 1 impurities” value ([2]; 25° C./60% RH, after 9 months) was 0.02%. For the same molecule, the “Related substance 2 and any isomers” value ([2]; 25° C./60% RH, nine months) was “not detected”, the Appearance [2, 9] was “white solid” and the IR [2, 9] was “corresponded with the reference sample”. For the same molecule, the Appearance ([2]; 25 ± 2° C./60 ± 5% RH, 0 month) was “White”, the Assay ([2]; 25 ± 2° C./60 ± 5% RH, 0 month) was 98.8% and the IR ([2]; 25 ± 2° C./60 ± 5% RH, 0 month) was “correspond”. The “Related Substance 1 Any other single impurity” value ([2]; 25 ± 2° C./60 ± 5% RH, 0 month) was 0.01%, the “Related Substance 1 Total Impurities” value ([2]; 25 ± 2° C./60 ± 5% RH, 0 month) was 0.01% and the Water ([2]; 25 ± 2° C./60 ± 5% RH, 0 month) was 0.45%. For the same molecule, the Appearance [2, 10] was “White”, the Assay [2, 10] was 101.1% and the “Related Substance 1 Any other single impurity” value [2, 10] was 0.01%. For the same molecule, the “Related Substance 1 Total Impurities” value [2, 10] was 0.02%, the Water [2, 10] was 0.19% and the Appearance [2, 11] was “White”. For the same molecule, the Assay [2, 11] was 99.6%, the IR [2, 11] was “correspond” and the “Related Substance 1 Any other single impurity” value [2, 11] was 0.03%. For the same molecule, the “Related Substance 1 Impurity B” value [2, 11] was 0.03%, the “Related Substance 1 Impurity F” value [2, 11] was 0.02% and the “Related Substance 1 Total Impurities” value [2, 11] was 0.11%. For the same molecule, the Water [2, 11] was 0.29%, the Appearance [2, 12] was “White solid” and the Assay [2, 12] was 99.7%. The IR [2, 12] was “correspond”, the “Related Substance 1 Any other single impurity” value [2, 12] was 0.02% and the “Related Substance 1 Impurity F” value [2, 12] was 0.01%. For the same molecule, the “Related Substance 1 Total Impurities” value [2, 12] was 0.05%, the Water [2, 12] was 0.46% and the Appearance [2, 13] was “Off-white”. For the same molecule, the Assay [2, 13] was 100.9%, the IR [2, 13] was “correspond” and the “Related Substance 1 Any other single impurity” value [2, 13] was 0.02%. The “Related Substance 1 Total Impurities” value [2, 13] was 0.02%, the Water [2, 13] was 0.20% and the “Stability” value ([2]; ambient conditions (25° C./60% RH), 9 months) was “very stable; also recorded: stable”. The “Mean Dose-normalized AUC(0-4hr) for Compound 1” value [3] was 1.0 µM·h, the AUC(0-t) ([4]; 30 mg/kg) was 176 ng·h/mL and the Cmax ([4]; 30 mg/kg) was 63.5 ng/mL. It also gave a Tmax ([4]; 30 mg/kg) of 0.5 to 2 h, an AUC(0-t) ([4]; 100 mg/kg) of 1100 ng·h/mL and a Cmax ([4]; 100 mg/kg) of 783 ng/mL. For the same molecule, the Tmax ([4]; 100 mg/kg) was 1 to 2 h, the AUC(0-t) ([4]; 300 mg/kg) was 1600 ng·h/mL and the Cmax ([4]; 300 mg/kg) was 501 ng/mL. The Tmax ([4]; 300 mg/kg) was 204 h, the “Vomiting (animals affected)” value ([4]; monkeys, high dose group) was 1/5 and the “Dose proportionality of Compound 1 exposures” value ([4]; monkeys, single oral doses of Compound 2) was “roughly dose-proportional”. The AUC(0-t) ([5]; 30 mg/kg) was 1300 ng·h/mL, the AUC(0-t) ([5]; 100 mg/kg) was 10200 ng·h/mL and the Cmax ([5]; 100 mg/kg) was 8120 ng/mL. It also gave a Tmax ([5]; 100 mg/kg) of 0.5 to 1 h, an AUC(0-t) ([5]; 300 mg/kg) of 44300 ng·h/mL and a Cmax ([5]; 300 mg/kg) of 21300 ng/mL. For the same molecule, the Tmax ([5]; 300 mg/kg) was 204 h, the “Vomiting (animals affected)” value ([5]; dogs, high dose group) was 5/5 and the “Dose proportionality of Compound 1 exposures” value ([5]; dogs, single oral doses of Compound 2) was “supra-proportional”. For the same molecule, the “Active TP (metabolite 1-6) level in heart” value [6] was “unquantifiable levels”, the “Active TP (metabolite 1-6) level in liver” value [6] was “High levels” and the “Active TP (metabolite 1-6) level in heart” value [7] was “Relatively low levels”. For the same molecule, the “Active TP (metabolite 1-6) level in liver” value [7] was “High levels”, the “Hygroscopicity” value [8] was “not hydroscopic; also recorded: non-hygroscopic” and the “Physical/chemical stability and appearance on storage” value ([8]; 25° C./60% RH, 14 days) was “stable white solid”.
